Data on two molecules can be found in US20110184018A1, “METHOD FOR TREATING PERIPHERAL NEUROPATHIC PAIN” (LOHOCLA RESEARCH CORPORATION, priority 2005, published 2011).

One assay has as its target T1, CB1 receptor (Homo sapiens, UniProt P21554).
T1 construct: expressed in transfected cells; host or cells: HEK293 cells (ATCC), calcium phosphate transfection
The experiment in a line: cAMP accumulation in HEK293 cells transfected with AC7, D1AR, CB1R. Type of assay: cell-based. Conditions: dopamine stimulated cAMP. As to the method:
HEK293 cells were obtained from American Type Culture Collection (Manassas, Va.). Cells were cultured in 225 mL flasks containing 39 mL of MEM containing 10% fetal bovine serum, penicillin (50 μg/mL), streptomycin (50 μg/mL), and neomycin (100 μg/mL). The flasks were maintained in a humidified atmosphere of 95% air and 5% CO2 at about 37° C. Transfection was performed by the method of DNA precipitation with calcium phosphate 1 day after HEK 293 cells were transferred to small flasks (75 mL) at the density of approximately 60 to 80% confluence. […] Transfection efficiency was routinely monitored by observing the expression of enhanced green fluorescent protein (GFP) by an epifluorescence microscope equipped with a filter set (excitation, 480/40 nm; emission, 535/50 nm) and a dichroic mirror (T89002bs; Chroma Technology, Rockingham, Vt.). […]
To determine the effect of the DCUK-OEt or other compounds on the function of the CB1 receptor, the cells were treated with the phosphodiesterase inhibitor, IBMX (500 μM), for 10 minutes at 37° C., followed by the addition of D1A receptor agonist, dopamine (DA) (1 μM), in the presence of a known CB1 agonist or agonist, plus a CB1 antagonist for 5 minutes. […] ATP and cAMP were separated through Dowex 50 and neutral alumina columns as is known in the art, and quantified by liquid scintillation counting. […]
A general note: Cyclic AMP is a second messenger, typically raised through Gs and lowered through Gi signalling.

The test system of assay [1] is primary cultures of rat cerebellar granule cells. The experiment in a line: Glutamate-induced excitotoxic cell death. The assay is classed as cell-based. The following applies: 100 micromolar glutamate. As to the method: Glutamate Excitotoxicity. Primary cultures of cerebellar granule cells were prepared from 7-day-old Sprague-Dawley rats. The cultures were maintained in plates containing 24 wells (volume of 1 mL/well). Culture density was about 1.5×10^6 cells/mL. Cell viability was assayed after 7 or 8 days in culture by the production of fluorescein, formed from fluorescein diacetate by esterases present in living cells. Cells were washed with magnesium ion-free Locke's buffer, and then exposed to 100 μM glutamate alone, glutamate and 10 μM glycine, or each of these conditions in the presence of 100 μM DCUKA or 100 μM DCUK-OMe at 25° C. for 30 minutes. DCUKA and DCUK-OMe were added in 2-μl aliquots to yield a final DMSO concentration of 0.2%. […] Fluorescence of each well was measured on a Perkin-Elmer HTS7000 plate reader (excitation 485 nm; emission 535 nm; 16 measurements per well) with optimal gain settings. For each 24-well plate, the fluorescence of one control culture well (i.e., not exposed to glutamate) was automatically set to the highest fluorescence value, and fluorescence values were determined in all other wells with the same gain settings. Fluorescence measurements in all 24 wells were normalized to the control culture and expressed as a percentage of this value. Data are expressed as percentage of cell death (100-percentage of control). […]

T1 sequence (P21554 whole entry): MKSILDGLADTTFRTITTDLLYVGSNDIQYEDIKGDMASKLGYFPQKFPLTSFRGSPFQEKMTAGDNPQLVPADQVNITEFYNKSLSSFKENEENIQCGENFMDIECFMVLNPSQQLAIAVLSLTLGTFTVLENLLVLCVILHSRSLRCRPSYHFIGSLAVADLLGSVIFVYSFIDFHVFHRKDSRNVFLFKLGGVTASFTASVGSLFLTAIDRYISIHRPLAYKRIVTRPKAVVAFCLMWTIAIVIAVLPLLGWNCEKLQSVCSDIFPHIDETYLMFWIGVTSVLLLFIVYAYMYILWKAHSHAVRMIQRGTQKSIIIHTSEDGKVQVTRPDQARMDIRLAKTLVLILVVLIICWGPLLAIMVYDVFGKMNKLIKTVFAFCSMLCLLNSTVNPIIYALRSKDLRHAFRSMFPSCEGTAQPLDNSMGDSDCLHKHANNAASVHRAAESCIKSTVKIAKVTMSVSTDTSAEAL

As to `CCOC(=O)c1cc(NC(=O)N(c2ccccc2)c2ccccc2)c2c(Cl)cc(Cl)cc2n1` [DCUK-OEt, N,N-diphenyl-4-ureido-5,7-dichloro-2-carboxy quinoline ethyl ester], at CB1 receptor, the “functional action at CB1 receptor” value is “acts like an agonist at the CB1 receptor”. `O=C(O)c1cc(NC(=O)N(c2ccccc2)c2ccccc2)c2c(Cl)cc(Cl)cc2n1` [DCUKA, N,N-diphenyl-4-ureido-5,7-dichloro-2-carboxyquinoline]: the “protection from glutamate-induced damage” value in assay [1] (100 μM compound) was “completely protected”. Also, the “reduction of cell death” value in assay [1] (10 micromolar compound) is “more than 50%”.
